Data set [1] in a line: In vitro viability test (MTT) on non-cancerous Vero cell lines. As to conditions: African green monkey, Vero cells (non-cancerous), non-cancerous model, read-out: Cytotoxicity Against Vero Cell Lines (IC50). Type of data set: cell-based. An excerpt: (§1) An in-vitro viability test was used to investigate the safety patterns of the tested compounds at different concentrations. The Vero cell lines were used as a non-cancerous model to investigate the safety of the targeted compounds. […] Such values are very high in comparison to the corresponding values on the cancer cell lines, which reflect the high in vitro safety profiles of the tested members towards the examined non-cancerous cell lines (Table 2).

The test system of data set [2] is HepG2. In words: In vitro anti-proliferative activity (MTT assay), HepG2. The following applies: for Selectivity index (SI) (HepG2): cytotoxicity against Vero cells/cytotoxicity against HepG2. Background: Tetrazolium dyes change colour on reduction, which living cells bring about.
Data set [3] concerns HCT-116. The experiment in a line: In vitro anti-proliferative activity (MTT assay), HCT-116. The following applies: for Selectivity index (SI) (HCT-116): Cytotoxicity against Vero cells/cytotoxicity against HCT-116.
Data set [4] deals with human VEGFR-2 (Homo sapiens, UniProt P35968). The experiment in a line: In vitro VEGFR-2 enzyme inhibition assay (Human VEGFR-2 ELISA kit).
human VEGFR-2, sequence (P35968 20-1356): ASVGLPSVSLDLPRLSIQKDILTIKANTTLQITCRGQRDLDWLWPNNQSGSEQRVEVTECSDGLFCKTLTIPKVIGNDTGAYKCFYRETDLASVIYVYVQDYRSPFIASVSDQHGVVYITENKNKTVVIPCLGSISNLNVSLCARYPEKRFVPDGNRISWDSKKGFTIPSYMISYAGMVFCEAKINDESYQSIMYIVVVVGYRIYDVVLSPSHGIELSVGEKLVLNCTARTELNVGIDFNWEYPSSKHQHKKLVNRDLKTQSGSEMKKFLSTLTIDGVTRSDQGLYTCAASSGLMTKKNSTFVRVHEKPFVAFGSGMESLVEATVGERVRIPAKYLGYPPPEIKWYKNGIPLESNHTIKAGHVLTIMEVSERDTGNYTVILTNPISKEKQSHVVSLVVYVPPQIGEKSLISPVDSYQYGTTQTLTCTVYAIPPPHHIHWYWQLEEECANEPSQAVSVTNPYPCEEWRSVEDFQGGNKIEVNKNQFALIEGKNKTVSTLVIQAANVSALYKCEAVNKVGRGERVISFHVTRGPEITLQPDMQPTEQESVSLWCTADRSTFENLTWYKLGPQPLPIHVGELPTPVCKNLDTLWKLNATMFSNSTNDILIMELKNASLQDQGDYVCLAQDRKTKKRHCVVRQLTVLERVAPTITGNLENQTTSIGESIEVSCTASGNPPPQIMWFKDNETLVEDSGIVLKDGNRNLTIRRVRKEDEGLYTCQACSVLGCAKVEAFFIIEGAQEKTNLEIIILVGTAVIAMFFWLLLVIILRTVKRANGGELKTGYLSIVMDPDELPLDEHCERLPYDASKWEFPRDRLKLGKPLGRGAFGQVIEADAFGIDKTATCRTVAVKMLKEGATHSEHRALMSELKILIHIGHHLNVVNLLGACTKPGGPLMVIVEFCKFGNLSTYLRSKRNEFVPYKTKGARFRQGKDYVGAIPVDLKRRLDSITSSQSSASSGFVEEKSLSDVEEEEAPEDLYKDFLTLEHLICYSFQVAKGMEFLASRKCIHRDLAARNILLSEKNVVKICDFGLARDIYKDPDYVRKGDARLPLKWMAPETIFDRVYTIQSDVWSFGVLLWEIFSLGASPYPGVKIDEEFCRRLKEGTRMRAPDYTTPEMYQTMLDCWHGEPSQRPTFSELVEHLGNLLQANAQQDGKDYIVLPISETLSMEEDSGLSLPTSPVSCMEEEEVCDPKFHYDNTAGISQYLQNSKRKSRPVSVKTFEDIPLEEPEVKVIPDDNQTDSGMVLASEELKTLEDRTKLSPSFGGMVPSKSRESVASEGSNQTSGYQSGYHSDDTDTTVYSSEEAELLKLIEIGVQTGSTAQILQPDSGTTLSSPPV
The test system of data set [5] is Vero cell lines. In words: In vitro viability test (MTT) on non-cancerous Vero cell lines. Type of data set: cell-based. The following applies: non-cancerous model, read-out: Cytotoxicity Against Vero Cell Lines (IC50).
From the text: as §1

Data set [6] relates to HCT-116 cells. In words: Flow cytometry analysis for cell cycle (PI staining). Type of data set: cell-based, human. As to conditions: HCT-116, 5.4 µM, 24 h. A general note: In flow cytometry, cells or beads pass a laser one at a time.
Data set [7] deals with HCT-116 cells. The experiment in a line: Flow cytometry analysis for apoptosis (Annexin V and PI double staining). It is filed as cell-based, human. As to conditions: HCT-116, 5.4 µM, 24 h.
Data set [8] deals with TNF-α. The experiment in a line: TNF-α level in treated HCT-116 cells (qRT-PCR). Type of data set: cell-based. The following applies: Homo sapiens; HCT-116, 5.4 µM, 24 h; control 82.47. Background: Real-time PCR tracks product formation cycle by cycle.
Data set [9] deals with IL-6. The experiment in a line: IL-6 level in treated HCT-116 cells (qRT-PCR). Type of data set: cell-based, human. As to conditions: HCT-116, 5.4 µM, 24 h.
Data set [10] deals with Bax. The experiment in a line: Bax expression level in treated HCT-116 cells (qRT-PCR). As to conditions: HCT-116, 5.4 µM, 24 h.
In data set [11] the test system is Bcl-2. The experiment in a line: Bcl-2 expression level in treated HCT-116 cells (qRT-PCR). The following applies: HCT-116, 5.4 µM, 24 h.
For data set [12], the system named is caspase-8. The experiment in a line: Caspase-8 expression level in treated HCT-116 cells (qRT-PCR). The following applies: HCT-116, 5.4 µM, 24 h.
Setting [13] is: Homo sapiens, HepG2, read-out: Cytotoxicity IC50 HepG2.
Where [14] appears, read: Homo sapiens, HCT-116, read-out: Cytotoxicity IC50 HCT-116.

Experimental findings from paper PMC9268560, “Design, Synthesis, In Silico and In Vitro Studies of New Immunomodulatory Anticancer Nicotinamide Derivatives Targeting VEGFR-2” (Molecules, 2022) are described below.

Like-named read-outs stand apart in the source and are kept apart here.

On to `CC(=NNC(N)=S)c1ccc(NC(=O)c2cccnc2)cc1` [Compound 11, N-(4-(1-(2-Carbamothioylhydrazono)ethyl)phenyl)nicotinamide], for which the IC50 in data set [1] was found to be 105 µM; in data set [2] (setting [13]), 20.3 ± 0.064 µM; in data set [3] (setting [14]), 25.07 ± 0.07 µM; in data set [4] it was 0.0834 ± 0.00553 µM. The “Selectivity index (SI) (HepG2)” value in data set [2] is recorded as 5.19. In data set [3], the “Selectivity index (SI) (HCT-116)” value came out at 4.20.

Take “(E)-N-(4-(1-(2-(2,6-Dinitrophenyl)hydrazono)ethyl)phenyl)nicotinamide [Compound 12]”: the IC50 in data set [5] was determined as 95.4 µM; in data set [2] (read-out: Cytotoxicity IC50 HepG2, MTT, mean ± S.D. of three separate experiments), 17.5 ± 0.058 µM; in data set [3] (read-out: Cytotoxicity IC50 HCT-116, MTT, mean ± S.D. of three separate experiments), 18.2 ± 0.06 µM; in data set [4] (read-out: VEGFR-2 IC50, mean ± S.D. of three separate experiments), 0.115 ± 0.00733 µM. Besides, the “Selectivity index (SI) (HepG2)” value in [2] turned out to be 5.45. Also, the “Selectivity index (SI) (HCT-116)” value in data set [3] came out at 5.24.

In the case of `CNC(=O)c1cc(Oc2ccc(NC(=O)Nc3ccc(Cl)c(C(F)(F)F)c3)cc2)ccn1` [Sorafenib, sorafenib, reference compound], the values for the IC50 in data set [2] (setting [13]) and in data set [3] (setting [14]) were 7.4 ± 0.235 µM and 9.3 ± 0.201 µM, respectively.

`COc1ccc(/C=N/NC(=O)c2ccc(NC(=O)c3cccnc3)cc2)cc1OC` [Compound 7, (E)-N-(4-(2-(3,4-Dimethoxybenzylidene)hydrazine-1-carbonyl)phenyl)-nicotinamide]: the IC50 was 128 µM in [1], 18.8 ± 0.061 µM in data set [2] (setting [13]), 19.2 ± 0.062 µM in data set [3] (setting [14]) and 0.113 ± 0.00723 µM in data set [4]. Besides, in [2], the “Selectivity index (SI) (HepG2)” value is reported as 6.80. For the same compound, in data set [3], the “Selectivity index (SI) (HCT-116)” value stood at 6.66.

Take `CN(C)c1ccc(/C=C/C=N/NC(=O)c2ccc(NC(=O)c3cccnc3)cc2)cc1` [Compound 8, N-(4-(2-((1E,2E)-3-(4-(Dimethylamino)phenyl)allylidene)hydrazine-1-carbonyl)phenyl)nicotinamide]: the IC50 in data set [1] came to 85.2 µM; in data set [2] (setting [13]), 7.1 ± 0.03 µM; in data set [3] (setting [14]), 5.4 ± 0.02 µM; in [4], 0.077 ± 0.00425 µM. The “Augmentation of G0–G1 phase vs control” value in [6] was determined as 1.42 fold. For the same compound, in data set [6], the “Decline of cell population at G2/M phase vs control” value turned out to be 2.11 fold. The “Cell Cycle Distribution %G2-M” value in [6] (control 27.29) came out at 12.91%. In data set [6] (control 33.75), the “Cell Cycle Distribution % S” value turned out to be 31.47%. Further, the “Cell Cycle Distribution %G0-G1” value in data set [6] (control 38.96) amounted to 55.62%. The “Cell Cycle Distribution %Pre-G1” value in [6] (control printed 19.82) was 3.05%. Also, in data set [7], the “Increase in total apoptosis vs control” value is 6.5 fold. Further, the Necrosis in data set [7] (control 0.62) came out at 1.85%. Moreover, in [7] (control 0.7), the “Apoptosis Early” value came to 3.74%. The “Apoptosis Late” value in [7] (control 1.73) is given as 14.23%. Moreover, the “Apoptosis Total” value in data set [7] (control 3.05) is reported as 19.82%. For the same compound, the inhibition at 5.4 µM worked out at 92.4% in data set [8] and 94.1% in [9] (Homo sapiens, control 93.15). In data set [9], the “Effect on the level of IL-6 (in words)” value is recorded as “non-significant reduction”. For the same compound, the “Selectivity index (SI) (HepG2)” value in data set [2] stood at 12.01. Further, the “Increase in Bax level vs control cells” value in data set [10] was determined as 9.2 fold. The Bax expression level in data set [10] (control 42.19) came to 387.26 pg/mL. Further, in data set [3], the “Selectivity index (SI) (HCT-116)” value was determined as 15.79. Also, in data set [11], the “Decrease in Bcl-2 level vs control cells” value is listed as 3 fold. Further, the Bcl-2 expression level in data set [11] (control 5.603) worked out at 1.844 pg/mL. In addition, in data set [12], the “Increase in caspase-8 level vs control cells” value is given as 9.4 fold. Further, the Caspase-8 expression level in data set [12] (control 50.317) was determined as 472.3 pg/mL.

With `O=C(N/N=C/c1ccc(Cl)cc1Cl)c1ccc(NC(=O)c2cccnc2)cc1` [Compound 6, (E)-N-(4-(2-(2,4-Dichlorobenzylidene)hydrazine-1-carbonyl)phenyl)-nicotinamide], the IC50 worked out at 84.7 µM in data set [1], 16.5 ± 0.057 µM in data set [2] (setting [13]), 17.8 ± 0.059 µM in data set [3] (setting [14]) and 0.172 ± 0.0102 µM in [4]. The “Selectivity index (SI) (HepG2)” value in data set [2] is reported as 5.13. In [3], the “Selectivity index (SI) (HCT-116)” value worked out at 4.76.

In general, IC50 refers to the point on the concentration scale where inhibition reaches its midpoint. A word on the inhibition: it is the drop in the measured response relative to a control, in per cent. Higher therefore signals a strong effect.
